Assay results: paper PMC10364322, “Evaluation of chronic drug-induced electrophysiological and cytotoxic effects using human-induced pluripotent stem cell-derived cardiomyocytes (hiPSC-CMs)” (Frontiers in Pharmacology, 2023)
Like-named read-outs stand apart in the source and are kept apart here.

Tested on: hiPSC-CMs (iCell-Cardiomyocytes^2)
Procedure, shortened: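 Spontaneous field potentials and impedance recorded by MEA at 37°C, 5% CO2 in hiPSC-CM monolayers (50 K/well, fibronectin-coated), 5-min baseline before compound; final DMSO 0.1%. Values are percent change from baseline, mean ± SD, compared with DMSO by Wilcoxon-Mann Whitney, interpreted against DMSO tolerance intervals.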

N=C(N)c1ccc(OCCCCCOc2ccc(C(=N)N)cc2)cc1 [Pentamidine]
BR (beating rate), % change from baseline (0.1 µM, 2h): -1±2% | Beating below threshold, number of observations/total well numbers (0.1 µM, 2h): 0/6 | Cessation of beating, number of observations/total well numbers (0.1 µM, 2h): 0/6 | EAD, number of observations/total well numbers (0.1 µM, 2h): 0/6 | FPD (field-potential duration), % change from baseline (0.1 µM, 2h): 2.6±1.2% | FPDc (field-potential duration corrected by beat-rate), % change from baseline (0.1 µM, 2h): 2.2±1.4% | Flat T-wave-like, number of observations/total well numbers (0.1 µM, 2h): 0/6 | BR (beating rate), % change from baseline (0.1 µM, 24h): 2±2% | Beating below threshold, number of observations/total well numbers (0.1 µM, 24h): 0/6 | Cessation of beating, number of observations/total well numbers (0.1 µM, 24h): 0/6 | EAD, number of observations/total well numbers (0.1 µM, 24h): 0/6 | FPD (field-potential duration), % change from baseline (0.1 µM, 24h): 2±3.4% | FPDc (field-potential duration corrected by beat-rate), % change from baseline (0.1 µM, 24h): 2.8±3.1% | Flat T-wave-like, number of observations/total well numbers (0.1 µM, 24h): 0/6 | BR (beating rate), % change from baseline (0.1 µM, 48h): -4±3% | Beating below threshold, number of observations/total well numbers (0.1 µM, 48h): 0/6 | Cessation of beating, number of observations/total well numbers (0.1 µM, 48h): 0/6 | EAD, number of observations/total well numbers (0.1 µM, 48h): 0/6 | FPD (field-potential duration), % change from baseline (0.1 µM, 48h): 7.3±1.7% | FPDc (field-potential duration corrected by beat-rate), % change from baseline (0.1 µM, 48h): 5.7±2% | Flat T-wave-like, number of observations/total well numbers (0.1 µM, 48h): 0/6 | BR (beating rate), % change from baseline (0.1 µM, 72h): -6±3% | Beating below threshold, number of observations/total well numbers (0.1 µM, 72h): 0/6 | Cessation of beating, number of observations/total well numbers (0.1 µM, 72h): 0/6 | EAD, number of observations/total well numbers (0.1 µM, 72h): 0/6 | FPD (field-potential duration), % change from baseline (0.1 µM, 72h): 4.9±2.5% | FPDc (field-potential duration corrected by beat-rate), % change from baseline (0.1 µM, 72h): 3±2.9% | Flat T-wave-like, number of observations/total well numbers (0.1 µM, 72h): 0/6 | BR (beating rate), % change from baseline (0.1 µM, 96h): -13±3% | Beating below threshold, number of observations/total well numbers (0.1 µM, 96h): 0/6 | Cessation of beating, number of observations/total well numbers (0.1 µM, 96h): 0/6 | EAD, number of observations/total well numbers (0.1 µM, 96h): 0/6 | FPD (field-potential duration), % change from baseline (0.1 µM, 96h): 9.2±3.1% | FPDc (field-potential duration corrected by beat-rate), % change from baseline (0.1 µM, 96h): 4.3±2.8% | Flat T-wave-like, number of observations/total well numbers (0.1 µM, 96h): 0/6 | BR (beating rate), % change from baseline (0.3 µM, 2h): -4±4% | Beating below threshold, number of observations/total well numbers (0.3 µM, 2h): 0/5 | Cessation of beating, number of observations/total well numbers (0.3 µM, 2h): 0/5 | EAD, number of observations/total well numbers (0.3 µM, 2h): 0/5 | FPD (field-potential duration), % change from baseline (0.3 µM, 2h): 9.7±6.7 % | FPDc (field-potential duration corrected by beat-rate), % change from baseline (0.3 µM, 2h): 8±7.4% | Flat T-wave-like, number of observations/total well numbers (0.3 µM, 2h): 0/5 | BR (beating rate), % change from baseline (0.3 µM, 24h): 0±3% | Beating below threshold, number of observations/total well numbers (0.3 µM, 24h): 0/5 | Cessation of beating, number of observations/total well numbers (0.3 µM, 24h): 0/5 | EAD, number of observations/total well numbers (0.3 µM, 24h): 0/5 | FPD (field-potential duration), % change from baseline (0.3 µM, 24h): 4.6±3.3% | FPDc (field-potential duration corrected by beat-rate), % change from baseline (0.3 µM, 24h): 4.5±3.1% | Flat T-wave-like, number of observations/total well numbers (0.3 µM, 24h): 0/5 | BR (beating rate), % change from baseline (0.3 µM, 48h): -2±4% | Beating below threshold, number of observations/total well numbers (0.3 µM, 48h): 0/5 | Cessation of beating, number of observations/total well numbers (0.3 µM, 48h): 0/5 | EAD, number of observations/total well numbers (0.3 µM, 48h): 0/5 | FPD (field-potential duration), % change from baseline (0.3 µM, 48h): 4.9±2.6% | FPDc (field-potential duration corrected by beat-rate), % change from baseline (0.3 µM, 48h): 4.1±2% | Flat T-wave-like, number of observations/total well numbers (0.3 µM, 48h): 0/5 | BR (beating rate), % change from baseline (0.3 µM, 72h): -11±4% | Beating below threshold, number of observations/total well numbers (0.3 µM, 72h): 0/5 | Cessation of beating, number of observations/total well numbers (0.3 µM, 72h): 0/5 | EAD, number of observations/total well numbers (0.3 µM, 72h): 0/5 | FPD (field-potential duration), % change from baseline (0.3 µM, 72h): 10.5±2.1% | FPDc (field-potential duration corrected by beat-rate), % change from baseline (0.3 µM, 72h): 6.4±2.9% | Flat T-wave-like, number of observations/total well numbers (0.3 µM, 72h): 0/5 | BR (beating rate), % change from baseline (0.3 µM, 96h): -20±5% | Beating below threshold, number of observations/total well numbers (0.3 µM, 96h): 0/5 | Cessation of beating, number of observations/total well numbers (0.3 µM, 96h): 0/5 | EAD, number of observations/total well numbers (0.3 µM, 96h): 0/5 | FPD (field-potential duration), % change from baseline (0.3 µM, 96h): 17.7±1.7% | FPDc (field-potential duration corrected by beat-rate), % change from baseline (0.3 µM, 96h): 9.3±1.9% | Flat T-wave-like, number of observations/total well numbers (0.3 µM, 96h): 0/5 | time point from which physiologically relevant prolongation of FPD and FPDc was observed (1 µM): 48 h | BR (beating rate), % change from baseline (1 µM, 2h): -3±3% | Beating below threshold, number of observations/total well numbers (1 µM, 2h): 0/6 | Cessation of beating, number of observations/total well numbers (1 µM, 2h): 0/6 | EAD, number of observations/total well numbers (1 µM, 2h): 0/6 | FPD (field-potential duration), % change from baseline (1 µM, 2h): 3.6±1.6% | FPDc (field-potential duration corrected by beat-rate), % change from baseline (1 µM, 2h): 2.5±1.7% | Flat T-wave-like, number of observations/total well numbers (1 µM, 2h): 0/6 | BR (beating rate), % change from baseline (1 µM, 24h): -7±3% | Beating below threshold, number of observations/total well numbers (1 µM, 24h): 0/6 | Cessation of beating, number of observations/total well numbers (1 µM, 24h): 0/6 | EAD, number of observations/total well numbers (1 µM, 24h): 0/6 | FPD (field-potential duration), % change from baseline (1 µM, 24h): 8±1% | FPDc (field-potential duration corrected by beat-rate), % change from baseline (1 µM, 24h): 5.5±1.6% | Flat T-wave-like, number of observations/total well numbers (1 µM, 24h): 0/6 | BR (beating rate), % change from baseline (1 µM, 48h): -16±3 % | Beating below threshold, number of observations/total well numbers (1 µM, 48h): 0/6 | Cessation of beating, number of observations/total well numbers (1 µM, 48h): 0/6 | EAD, number of observations/total well numbers (1 µM, 48h): 0/6 | FPD (field-potential duration), % change from baseline (1 µM, 48h): 21.1±3.4 % | FPDc (field-potential duration corrected by beat-rate), % change from baseline (1 µM, 48h): 14.3±2.3 % | Flat T-wave-like, number of observations/total well numbers (1 µM, 48h): 0/6 | BR (beating rate), % change from baseline (1 µM, 72h): -30±2 % | Beating below threshold, number of observations/total well numbers (1 µM, 72h): 0/6 | Cessation of beating, number of observations/total well numbers (1 µM, 72h): 0/6 | EAD, number of observations/total well numbers (1 µM, 72h): 0/6 | FPD (field-potential duration), % change from baseline (1 µM, 72h): 54.7±5.4 % | FPDc (field-potential duration corrected by beat-rate), % change from baseline (1 µM, 72h): 37.5±4.3 % | Flat T-wave-like, number of observations/total well numbers (1 µM, 72h): 0/6 | BR (beating rate), % change from baseline (1 µM, 96h): -30±5 % | Beating below threshold, number of observations/total well numbers (1 µM, 96h): 0/6 | Cessation of beating, number of observations/total well numbers (1 µM, 96h): 0/6 | EAD, number of observations/total well numbers (1 µM, 96h): 0/6 | FPD (field-potential duration), % change from baseline (1 µM, 96h): 71.5±10.4 % | FPDc (field-potential duration corrected by beat-rate), % change from baseline (1 µM, 96h): 52.5±8.8 % | Flat T-wave-like, number of observations/total well numbers (1 µM, 96h): 0/6 | time point from which physiologically relevant prolongation of FPD and FPDc was observed (3 µM): 24 h | BR (beating rate), % change from baseline (3 µM, 72h): -54±5 % | Beating below threshold, number of observations/total well numbers (3 µM, 72h): 0/6 | Cessation of beating, number of observations/total well numbers (3 µM, 72h): 3/6 | EAD, number of observations/total well numbers (3 µM, 72h): 2/6 | FPD (field-potential duration), % change from baseline (3 µM, 72h): 224.5±68 % | FPDc (field-potential duration corrected by beat-rate), % change from baseline (3 µM, 72h): 156.4±52.5 % | Flat T-wave-like, number of observations/total well numbers (3 µM, 72h): 1/6 | cessation of beating, wells/total wells (3 µM, 72h): 3/6 | Beating below threshold, number of observations/total well numbers (3 µM, 96h): 1/6 | Cessation of beating, number of observations/total well numbers (3 µM, 96h): 5/6 | EAD, number of observations/total well numbers (3 µM, 96h): 0/6 | Flat T-wave-like, number of observations/total well numbers (3 µM, 96h): 0/6 | cessation of beating, wells/total wells (3 µM, 96h): 6/6 | BR (beating rate), % change from baseline (3 µM, 2h): -2±3% | Beating below threshold, number of observations/total well numbers (3 µM, 2h): 0/6 | Cessation of beating, number of observations/total well numbers (3 µM, 2h): 0/6 | EAD, number of observations/total well numbers (3 µM, 2h): 0/6 | FPD (field-potential duration), % change from baseline (3 µM, 2h): 3.6±1.9% | FPDc (field-potential duration corrected by beat-rate), % change from baseline (3 µM, 2h): 2.7±2.1% | Flat T-wave-like, number of observations/total well numbers (3 µM, 2h): 0/6 | BR (beating rate), % change from baseline (3 µM, 24h): -18±8 % | Beating below threshold, number of observations/total well numbers (3 µM, 24h): 0/6 | Cessation of beating, number of observations/total well numbers (3 µM, 24h): 0/6 | EAD, number of observations/total well numbers (3 µM, 24h): 0/6 | FPD (field-potential duration), % change from baseline (3 µM, 24h): 23.4±11.8 % | FPDc (field-potential duration corrected by beat-rate), % change from baseline (3 µM, 24h): 15.2±8% | Flat T-wave-like, number of observations/total well numbers (3 µM, 24h): 0/6 | BR (beating rate), % change from baseline (3 µM, 48h): -30±8 % | Beating below threshold, number of observations/total well numbers (3 µM, 48h): 0/6 | Cessation of beating, number of observations/total well numbers (3 µM, 48h): 0/6 | EAD, number of observations/total well numbers (3 µM, 48h): 0/6 | FPD (field-potential duration), % change from baseline (3 µM, 48h): 73.1±39.4 % | FPDc (field-potential duration corrected by beat-rate), % change from baseline (3 µM, 48h): 52.6±30.7 % | Flat T-wave-like, number of observations/total well numbers (3 µM, 48h): 0/6 | concentration from which prolongation of FPD and EAD-like events were induced (time- and dose-dependent): 1000 nM
